# In patent US9611256B2, “Alkyne-, azide- and triazole-containing flavonoids as modulators for multidrug resistance in cancers” (The Hong Kong Polytechnic University, priority 2012, dated 2017):
# Columns and labels:
# BCRP [1] = molecular target: T1, BCRP (Homo sapiens, UniProt Q9UNQ0); test: cell-based
# T1 sequence (Q9UNQ0 1-655): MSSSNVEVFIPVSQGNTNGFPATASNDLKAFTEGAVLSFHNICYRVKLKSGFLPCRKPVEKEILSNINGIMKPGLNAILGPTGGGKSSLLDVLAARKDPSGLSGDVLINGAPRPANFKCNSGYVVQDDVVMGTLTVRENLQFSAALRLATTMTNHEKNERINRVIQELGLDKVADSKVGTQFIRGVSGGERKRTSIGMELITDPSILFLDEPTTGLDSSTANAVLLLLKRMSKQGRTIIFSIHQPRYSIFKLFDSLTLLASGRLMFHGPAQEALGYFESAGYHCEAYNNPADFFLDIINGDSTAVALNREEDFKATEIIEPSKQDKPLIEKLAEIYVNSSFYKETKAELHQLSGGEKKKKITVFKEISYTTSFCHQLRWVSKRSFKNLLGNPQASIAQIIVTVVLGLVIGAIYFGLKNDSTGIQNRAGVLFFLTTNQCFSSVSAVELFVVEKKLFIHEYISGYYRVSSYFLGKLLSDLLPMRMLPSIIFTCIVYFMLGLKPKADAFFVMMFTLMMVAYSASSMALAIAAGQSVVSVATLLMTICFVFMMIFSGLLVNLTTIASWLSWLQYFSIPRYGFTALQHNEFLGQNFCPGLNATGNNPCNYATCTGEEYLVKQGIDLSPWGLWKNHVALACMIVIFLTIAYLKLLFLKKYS
# BCRP [2] = molecular target: T1, BCRP; test: Reversal of BCRP-mediated topotecan resistance in MCF7-MX100 cells (cell proliferation assay); conditions: for Topotecan resistance of MCF7-MX100 Therapeutic index: (IC50 towards L929 or Raw264.7)/(EC50 for reversing drug resistance); for % of reversion of sensitivity of MCF7-MX100 towards topotecan: triazole dimers at 1.0 μM
# in vitro = conditions: mouse
# [3] = tested on: P-gp, MRP1 and BCRP transporters; test: Selectivity for ABC transporters, determined from % of reversion (Tables 1 and 2); format: cell-based, human; conditions: determined from % of reversion in Table 1 (>80% strongly, 79-50% moderately selective)
# From the text: Generally, the triazole dimers library can be divided into mono-selective, dual-selective and multi-selective ABC transporter modulators. Table 2 summarizes the selectivity of different active triazole dimers and some monomeric azides for the ABC transporters. […] From the study, it seems that the simple monomeric azides could be a highly BCRP-selective inhibitor. […] It is possible that differently selective (mono-, dual- and multi-) inhibitors of drug transporters could be potentially useful tools for investigation of complicated drug-resistance phenotypes and eventually, for treatment of drug-resistant cancers caused by overexpression of ABC transporters.
# The selectivity of active triazole compounds for various ABC transporters was determined from the Table 1. It would be considered as strongly selective if it causes >80% of reversion. It would be considered as moderately selective if it results in 79-50% of reversion. Overall, the active triazole compounds can be divided into mono-, dual- and multi-selective for P-gp, MRP1 and BCRP transporters.
# MRP1 = MRP1 (Homo sapiens, UniProt P33527); test: Reversal of MRP1-mediated DOX resistance in 2008/MRP1 cells (cell proliferation assay); conditions: for DOX resistance of 2008/MRP1 Therapeutic index: (IC50 towards L929 or Raw264.7)/(EC50 for reversing drug resistance); for % of reversion of sensitivity of 2008/MRP1 towards DOX: triazole dimers at 1.0 μM
# MRP1, sequence (P33527 whole entry): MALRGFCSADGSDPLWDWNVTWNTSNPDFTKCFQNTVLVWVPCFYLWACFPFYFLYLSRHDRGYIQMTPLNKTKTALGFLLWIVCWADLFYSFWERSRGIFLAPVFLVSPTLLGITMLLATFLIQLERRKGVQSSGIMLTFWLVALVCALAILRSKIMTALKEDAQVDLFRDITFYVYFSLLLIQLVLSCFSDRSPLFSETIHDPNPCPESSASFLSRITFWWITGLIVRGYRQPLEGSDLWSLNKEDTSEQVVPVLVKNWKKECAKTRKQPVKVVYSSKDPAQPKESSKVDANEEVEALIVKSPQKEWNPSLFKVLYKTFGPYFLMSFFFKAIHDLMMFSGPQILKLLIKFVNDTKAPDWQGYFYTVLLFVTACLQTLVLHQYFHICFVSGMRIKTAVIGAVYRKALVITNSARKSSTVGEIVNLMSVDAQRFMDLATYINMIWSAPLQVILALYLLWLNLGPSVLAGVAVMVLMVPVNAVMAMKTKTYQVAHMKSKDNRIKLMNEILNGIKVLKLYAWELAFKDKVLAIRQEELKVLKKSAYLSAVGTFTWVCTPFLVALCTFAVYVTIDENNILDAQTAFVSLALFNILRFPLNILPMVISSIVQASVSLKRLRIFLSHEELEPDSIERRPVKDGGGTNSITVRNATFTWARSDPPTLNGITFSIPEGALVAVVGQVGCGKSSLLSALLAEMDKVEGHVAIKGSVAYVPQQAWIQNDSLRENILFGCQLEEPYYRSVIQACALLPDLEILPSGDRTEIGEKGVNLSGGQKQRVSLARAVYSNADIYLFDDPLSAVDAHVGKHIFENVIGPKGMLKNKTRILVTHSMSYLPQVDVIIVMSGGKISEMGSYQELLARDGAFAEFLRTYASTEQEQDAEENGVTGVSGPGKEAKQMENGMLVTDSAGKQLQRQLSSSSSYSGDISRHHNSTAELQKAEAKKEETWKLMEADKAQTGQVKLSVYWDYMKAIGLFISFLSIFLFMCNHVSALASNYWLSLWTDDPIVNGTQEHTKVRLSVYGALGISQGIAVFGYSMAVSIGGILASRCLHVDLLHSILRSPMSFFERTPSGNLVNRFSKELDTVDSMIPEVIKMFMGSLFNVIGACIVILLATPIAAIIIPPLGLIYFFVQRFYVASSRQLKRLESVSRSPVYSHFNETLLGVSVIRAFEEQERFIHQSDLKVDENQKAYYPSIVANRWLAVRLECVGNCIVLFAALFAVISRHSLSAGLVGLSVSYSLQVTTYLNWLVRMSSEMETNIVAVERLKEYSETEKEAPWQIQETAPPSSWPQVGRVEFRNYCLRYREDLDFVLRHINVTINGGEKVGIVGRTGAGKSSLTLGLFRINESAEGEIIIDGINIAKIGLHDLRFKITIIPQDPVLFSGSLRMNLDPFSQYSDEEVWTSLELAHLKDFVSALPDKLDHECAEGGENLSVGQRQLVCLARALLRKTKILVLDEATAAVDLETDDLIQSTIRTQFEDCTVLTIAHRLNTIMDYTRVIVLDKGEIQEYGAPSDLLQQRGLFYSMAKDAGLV
EC50 (BCRP [1]) [µM],IC50 at 5 days (in vitro) [µM],"Selectivity for ABC transporters (P-gp, MRP1, BCRP) [3]",% of reversion of sensitivity of 2008/MRP1 towards DOX (MRP1),Structure (SMILES),Topotecan resistance of MCF7-MX100 Therapeutic index (BCRP [2]),% of reversion of sensitivity of MCF7-MX100 towards topotecan (BCRP [2]),DOX resistance of 2008/MRP1 Therapeutic index (MRP1)
,> 100,mono-MRP1 selectivity,about 77.8%,"O=c1cc(-c2ccccc2)oc2cc(OCCN(Cc3ccccc3)Cc3cn(CCOCCOCCOc4ccc(-c5oc6ccccc6c(=O)c5OCc5ccccc5)cc4)nn3)ccc12 [Ac16Az5, 7-(2-(Benzyl((1-(2-(2-(2-(4-(3-(benzyloxy)-4-oxo-4H-chromen-2-yl)phenoxy)ethoxy)ethoxy)ethyl)-1H-1,2,3-triazol-4-yl)methyl)amino)ethoxy)-2-phenyl-4H-chromen-4-one]",,,>331.5
,> 100,mono-MRP1 selectivity,,"O=c1cc(-c2ccccc2)oc2cc(OCCOCCOCCn3cc(CN(CCOc4ccc5c(=O)cc(-c6ccccc6)oc5c4)Cc4ccccc4)nn3)ccc12 [Ac16Az12, 7-(2-(Benzyl((1-(2-(2-(2-((4-oxo-2-phenyl-4H-chromen-7-yl)oxy)ethoxy)ethoxy)ethyl)-1H-1,2,3-triazol-4-yl)methyl)amino)ethoxy)-2-phenyl-4H-chromen-4-one]",,,>480.8
,> 100,mono-MRP1 selectivity,,"Cc1ccc2oc(-c3ccc(OCCOCCOCCn4cc(CN(CCOc5ccc6c(=O)cc(-c7ccccc7)oc6c5)Cc5ccccc5)nn4)cc3)cc(=O)c2c1 [Ac16Az3, 7-(2-(Benzyl((1-(2-(2-(2-(4-(6-methyl-4-oxo-4H-chromen-2-yl)phenoxy)ethoxy)ethoxy)ethyl)-1H-1,2,3-triazol-4-yl)methyl)amino)ethoxy)-2-phenyl-4H-chromen-4-one]",,,>726.2
0.111 ± 0.009,> 100,MRP1- and BCRP-dual selectivity,,"O=c1cc(-c2ccc(OCCOCCn3cc(CN(Cc4ccccc4)Cc4cn(CCOCCOc5ccc(-c6cc(=O)c7ccccc7o6)cc5)nn4)nn3)cc2)oc2ccccc12 [Ac15Az1, 2,2′-((((((4,4′-((Benzylazanediyl)bis(methylene))bis(1H-1,2,3-triazole-4,1-diyl))bis(ethane-2,1-diyl))bis(oxy))bis(ethane-2,1-diyl))bis(oxy))bis(4,1-phenylene))bis(4H-chromen-4-one)]",,,
0.033,> 100,Pgp- and BCRP-dual selectivity,,"Cc1ccc2oc(-c3ccc(OCCCCc4cn(CCOCCOCCOc5ccc(-c6oc7ccccc7c(=O)c6OCc6ccccc6)cc5)nn4)cc3)cc(=O)c2c1 [Ac5Az5, 3-(Benzyloxy)-2-(4-(2-(2-(2-(4-(4-(4-(6-methyl-4-oxo-4H-chromen-2-yl)phenoxy)butyl)-1H-1,2,3-triazol-1-yl)ethoxy)ethoxy)ethoxy)phenyl)-4H-chromen-4-one]",,,
0.018,> 100,,,"Cc1ccc2oc(-c3ccc(OCCCCc4cn(CCOCCOCCOc5ccc(-c6cc(=O)c7cc(F)ccc7o6)cc5)nn4)cc3)cc(=O)c2c1 [Ac5Az4, 6-Fluoro-2-(4-(2-(2-(2-(4-(4-(4-(6-methyl-4-oxo-4H-chromen-2-yl)phenoxy)butyl)-1H-1,2,3-triazol-1-yl)ethoxy)ethoxy)ethoxy)phenyl)-4H-chromen-4-one]",,,

# The next lines start with the compound.
Structure (SMILES),EC50 (BCRP [1]) [µM],IC50 at 5 days (in vitro) [µM],"Selectivity for ABC transporters (P-gp, MRP1, BCRP) [3]",% of reversion of sensitivity of 2008/MRP1 towards DOX (MRP1),Topotecan resistance of MCF7-MX100 Therapeutic index (BCRP [2]),% of reversion of sensitivity of MCF7-MX100 towards topotecan (BCRP [2]),DOX resistance of 2008/MRP1 Therapeutic index (MRP1)
"COC(=O)c1cccc(COc2c(-c3ccc(OCCOCCOCCn4cc(CCCCOc5ccc6c(=O)cc(-c7ccccc7)oc6c5)nn4)cc3)oc3ccccc3c2=O)c1 [Ac12Az9, Methyl 3-(((4-oxo-2-(4-(2-(2-(2-(4-(4-((4-oxo-2-phenyl-4H-chromen-7-yl)oxy)butyl)-1H-1,2,3-triazol-1-yl)ethoxy)ethoxy)ethoxy)phenyl)-4H-chromen-3-yl)oxy)methyl)benzoate]",≤ 0.01,> 100,"multi-selectivity towards P-gp, MRP1 and BCRP transporters",,>71428.6,about 80.0%,
"[N-]=[N+]=NCCOCCOc1ccc(-c2oc3ccccc3c(=O)c2OCc2ccccc2)cc1 [Az10, 2-(4-(2-(2-Azidoethoxy)ethoxy)phenyl)-3-(benzyloxy)-4H-chromen-4-one]",0.032,51,mono-BCRP selectivity,,,,
"COC(=O)c1cccc(COc2c(-c3ccc(OCCOCCn4cc(CN(Cc5ccccc5)Cc5cn(CCOCCOc6ccc(-c7oc8ccccc8c(=O)c7OCc7cccc(C(=O)OC)c7)cc6)nn5)nn4)cc3)oc3ccccc3c2=O)c1 [Ac15Az8, Dimethyl 3,3′-(((2,2′-((((((4,4′-((benzylazanediyl)bis(methylene))bis(1H-1,2,3-triazole-4,1-diyl))bis(ethane-2,1-diyl))bis(oxy))bis(ethane-2,1-diyl))bis(oxy))bis(4,1-phenylene))bis(4-oxo-4H-chromene-3,2-diyl))bis(oxy))bis(methylene))dibenzoate]",≤ 0.01,> 100,mono-BCRP selectivity,,>76923.1,,
"COC(=O)c1cccc(COc2c(-c3ccc(OCCOCCOCCN=[N+]=[N-])cc3)oc3ccccc3c2=O)c1 [Az9, Methyl 3-(((2-(4-(2-(2-(2-azidoethoxy)ethoxy)ethoxy)phenyl)-4-oxo-4H-chromen-3-yl)oxy)methyl)benzoate]",≤ 0.01,20.6,mono-BCRP selectivity,,2019.6,,
"COC(=O)c1cccc(COc2c(-c3ccc(OCCOCCn4cc(CCCCOc5ccc6c(=O)cc(-c7ccccc7)oc6c5)nn4)cc3)oc3ccccc3c2=O)c1 [Ac12Az8, Methyl 3-(((4-oxo-2-(4-(2-(2-(4-(4-((4-oxo-2-phenyl-4H-chromen-7-yl)oxy)butyl)-1H-1,2,3-triazol-1-yl)ethoxy)ethoxy)phenyl)-4H-chromen-3-yl)oxy)methyl)benzoate]",≤ 0.01,> 100,"multi-selectivity towards P-gp, MRP1 and BCRP transporters",,>17857.1,about 80.0%,
"COC(=O)c1cccc(COc2c(-c3ccc(OCCOCCOCCn4cc(CN(Cc5ccccc5)Cc5cn(CCOCCOCCOc6ccc(-c7oc8ccccc8c(=O)c7OCc7cccc(C(=O)OC)c7)cc6)nn5)nn4)cc3)oc3ccccc3c2=O)c1 [Ac15Az9, Dimethyl 3,3′-(((2,2′-((((((((4,4′-((benzylazanediyl)bis(methylene))bis(1H-1,2,3-triazole-4,1-diyl))bis(ethane-2,1-diyl))bis(oxy))bis(ethane-2,1-diyl))bis(oxy))bis(ethane-2,1-diyl))bis(oxy))bis(4,1-phenylene))bis(4-oxo-4H-chromene-3,2-diyl))bis(oxy))bis(methylene))dibenzoate]",≤ 0.01,> 100,mono-BCRP selectivity,,>50000.0,,
"O=c1c(OCc2ccccc2)c(-c2ccc(OCCOCCOCCn3cc(CN(Cc4ccccc4)Cc4cn(CCOCCOCCOc5ccc(-c6oc7ccccc7c(=O)c6OCc6ccccc6)cc5)nn4)nn3)cc2)oc2ccccc12 [Ac15Az5, 2,2′-((((((((4,4′-((Benzylazanediyl)bis(methylene))bis(1H-1,2,3-triazole-4,1-diyl))bis(ethane-2,1-diyl))bis(oxy))bis(ethane-2,1-diyl))bis(oxy))bis(ethane-2,1-diyl))bis(oxy))bis(4,1-phenylene))bis(3-(benzyloxy)-4H-chromen-4-one)]",0.048,> 100,mono-BCRP selectivity,,,,
"O=C(/C=C/c1ccc(OCCCCc2cn(CCOCCOc3ccc(-c4cc(=O)c5ccccc5o4)cc3)nn2)cc1)c1ccc(F)cc1O [Ac10Az1, (E)-2-(4-(2-(2-(4-(4-(4-(3-(4-Fluoro-2-hydroxyphenyl)-3-oxoprop-1-en-1-yl)phenoxy)butyl)-1H-1,2,3-triazol-1-yl)ethoxy)ethoxy)phenyl)-4H-chromen-4-one]",,,MRP1- and BCRP-dual selectivity,~54.8%,,,
